Structures can show the parent of a compound that is named as a salt.
Tested on: lymph node
Assay: Transcriptional profiling, chronic dosing, EAE mice: lymph node
Assay type: in vivo
Details: for Number of differentially expressed genes identified: Lymph Node: EAE, Chronic Dosing
Source text: EAE induction is generally performed by immunization with brain extracts, CNS proteins (such as myelin basic protein), or peptides from such protein emulsified in an adjuvant such as complete Freund's adjuvant, e.g., as described in Linker et al., Brain. 2011 March 134(Pt3): 678-92. […] FIG. 17 depicts exemplary immunophenotyping panels used to analyze various immune cell populations (e.g., T cells, T regulatory cells, NK cells, B cells, myeloid cells). […] The number of independent mice whose tissues were harvested for transcript profiling studies and whose data passed QC is shown in TABLE 15. Animals were exposed to CO2 and whole blood collected via cardiac puncture. Two 100 μl aliquots of whole blood were collected in 1.5 mL microcentrifuge tubes and snap frozen in liquid nitrogen. Peripheral (liver, spleen, kidney and jejunum) and CNS brain (cerebellum, hippocampus, striatum and cortex) tissues were harvested and snap frozen in liquid nitrogen, with special care taken to collect tissues of similar size and from the same location. All samples were stored at -80° C. until RNA extraction was conducted. For RNA preparation, frozen tissues were placed in 2 mL RNAse-free 96-well blocks with 1.5 mL QIAzol Lysis Reagent (QIAgen) and a 3.2 mm stainless steel bead (BioSpec Products, Bartlesville, Okla.). Tissues were disrupted for four cycles of 45 seconds in a Mini-Beadbeater (Biospec Products). RNA was extracted in chloroform and the aqueous phase was mixed with an equal volume of 70% ethanol. Extracted RNA was applied to RNeasy 96 plates and purified by the spin method according to the manufacturer's protocol (RNeasy 96 Universal Tissue Protocol, QIAgen, Hilden Germany). […] Washing and staining of the hybridized arrays were completed as described in the GeneChip Expression analysis technical manual for HT plate arrays using the Genechip® Array Station (Affymetrix, Santa Clara, Calif.) with modifications as described in […] et al. The processed GeneChip® plate arrays were scanned using GeneTitan scanner (Affymetrix, Santa Clara, Calif.). Affymetrix scans were subject to quality control (QC) measures. These tests included a visual inspection of the distribution of raw signal intensities and an assessment of RNA degradation, relative log expression (RLE), and normalized unscaled standard error (NUSE). All sample scans that passed these QC metrics were included in the analysis. All CEL files were subjected to GC-content-based Robust Multi-array Average (GCRMA) normalization (version 2.20.0) (Irizarry R A, et al. Nucleic Acids Res 2003; 31:e15; Li C, et al. Genome Biol 2001; 2:[…]0032). […] Stat Appl Genet Mol Biol 2004; 3:Article3). […] Springer Science+Business Media 2005). Changes in gene expression were studied by applying a linear modeling approach to fit gene expression levels according to the defined groups of samples (e.g. DMF-, MMF-, and Vehicle-treated animals) and Bayesian posterior error analysis as implemented by Smyth (Smyth G K. Stat Appl Genet Mol Biol 2004; 3:Article3). The comparisons considered included: DMF-vs-MMF, DMF-vs-Vehicle, MMF-vs-Vehicle, and Vehicle-vs-Naïve.

[1] = lymph node, 100DMF-vs-90MMF, 7 h
[2] = lymph node, 100DMF-vs-90MMF, 12 h
[3] = lymph node, 100DMF-vs-Veh, 12 h
[4] = lymph node, 100MMF-vs-Veh, 12 h

`COC(=O)/C=C/C(=O)OC` [DMF, dimethyl fumarate] was tested, and the “Number of differentially expressed genes identified: Lymph Node” value (“Number of differentially” for short) (100 mpk DMF-vs-90 mpk MMF, 7 h after last dosing) was 2, the “Number of differentially” value (100 mpk DMF-vs-90 mpk MMF, 12 h after last dosing) was 6 and the “Number of differentially” value (100 mpk DMF-vs-Vehicle, 7 h after last dosing) was 14. For the same compound, the “Number of differentially” value (100 mpk DMF-vs-Vehicle, 12 h after last dosing) was 8, the “FC BC005685 (1426188_PM_s_at)” value [1] was −1.54 and the “FC Slc10a6 (1428776_PM_at)” value [1] was −1.52. For the same compound, the “FC 1442025_PM_a_at (no gene symbol)” value [2] was 2.64, the “FC 1442026_PM_at (no gene symbol)” value [2] was 2.92 and the “FC Angptl4 (1417130_PM_s_at)” value [2] was 2.93. For the same compound, the “FC Cpt1a (1460409_PM_at)” value [2] was 1.56, the “FC Klf11 (1437241_PM_at)” value [2] was 1.91 and the “FC Zbtb16 (1419874_PM_x_at)” value [2] was 2.14. The “FC Clec4e (1420330_PM_at)” value (lymph node, 100DMF-vs-Veh, 7 h) was 1.55, the “FC Clec4d (1420804_PM_s_at)” value (lymph node, 100DMF-vs-Veh, 7 h) was 1.85 and the “FC Gdf3 (1449288_PM_at)” value (lymph node, 100DMF-vs-Veh, 7 h) was −1.57. For the same compound, the “FC Mmp12 (1449153_PM_at)” value (lymph node, 100DMF-vs-Veh, 7 h) was 3.33, the “FC Nqo1 (1423627_PM_at)” value (lymph node, 100DMF-vs-Veh, 7 h) was 2.79 and the “FC Osgin1 (1424022_PM_at)” value (lymph node, 100DMF-vs-Veh, 7 h) was 1.54. The “FC Rnf128 (1449036_PM_at)” value (lymph node, 100DMF-vs-Veh, 7 h) was 1.71, the “FC Slc11a1 (1420361_PM_at)” value (lymph node, 100DMF-vs-Veh, 7 h) was 1.57 and the “FC Srxn1 (1419942_PM_at)” value (lymph node, 100DMF-vs-Veh, 7 h) was 1.98. For the same compound, the “FC Srxn1 (1426875_PM_s_at)” value (lymph node, 100DMF-vs-Veh, 7 h) was 1.83, the “FC Tnfaip2 (1416273_PM_at)” value (lymph node, 100DMF-vs-Veh, 7 h) was 1.82 and the “FC Tnfaip2 (1438855_PM_x_at)” value (lymph node, 100DMF-vs-Veh, 7 h) was 1.52. For the same compound, the “FC Ugt1a1 /// Ugt1a10 /// Ugt1a2 /// Ugt1a5 /// Ugt1a6a /// Ugt1a6b /// Ugt1a7c /// Ugt1a9 (1424783_PM_a_at)” value (lymph node, 100DMF-vs-Veh, 7 h) was 1.52, the “FC Ugt1a1 /// Ugt1a10 /// Ugt1a2 /// Ugt1a5 /// Ugt1a6a /// Ugt1a6b /// Ugt1a7c /// Ugt1a9 (1426261_PM_s_at)” value (lymph node, 100DMF-vs-Veh, 7 h) was 1.62 and the “FC 1442025_PM_a_at (no gene symbol)” value [3] was 2.35. The “FC 1442026_PM_at (no gene symbol)” value [3] was 2.48, the “FC Clec4d (1420804_PM_s_at)” value [3] was 2.19 and the “FC Gzmk (1422280_PM_at)” value [3] was 1.92. The “FC Npas2 (1421037_PM_at)” value [3] was 1.53, the “FC Nqo1 (1423627_PM_at)” value [3] was 1.70 and the “FC Ugt1a1 /// Ugt1a10 /// Ugt1a2 /// Ugt1a5 /// Ugt1a6a /// Ugt1a6b /// Ugt1a7c /// Ugt1a9 (1424783_PM_a_at)” value [3] was 1.56. For the same compound, the “FC Zbtb16 (1419874_PM_x_at)” value [3] was 2.07 and the “Zbtb16 transcript signal, DMF-treated compared to MMF-treated animals” value (lymph node, chronically dosed EAE mice, 12 h after final dosing) was “increased signal”.

With `COC(=O)/C=C/C(=O)O` [MMF, monomethyl fumarate] the “Number of differentially” value (90 mpk MMF-vs-Vehicle, 7 h after last dosing) was 21, the “Number of differentially” value (90 mpk MMF-vs-Vehicle, 12 h after last dosing) was 7 and the “FC BC005685 (1426188_PM_s_at)” value (lymph node, 100MMF-vs-Veh, 7 h) was 1.54. For the same compound, the “FC C78662 (1442498_PM_at)” value (lymph node, 100MMF-vs-Veh, 7 h) was 1.68, the “FC Clec4e (1420330_PM_at)” value (lymph node, 100MMF-vs-Veh, 7 h) was 2.02 and the “FC Clec4e (1420331_PM_at)” value (lymph node, 100MMF-vs-Veh, 7 h) was 1.80. The “FC Clec4d (1420804_PM_s_at)” value (lymph node, 100MMF-vs-Veh, 7 h) was 2.40, the “FC Ctgf (1416953_PM_at)” value (lymph node, 100MMF-vs-Veh, 7 h) was 2.34 and the “FC Hs3st1 (1423450_PM_a_at)” value (lymph node, 100MMF-vs-Veh, 7 h) was 1.72. The “FC Il1f9 1425958_PM_at” value (lymph node, 100MMF-vs-Veh, 7 h) was 1.86, the “FC Mmp12 (1449153_PM_at)” value (lymph node, 100MMF-vs-Veh, 7 h) was 5.16 and the “FC Nqo1 (1423627_PM_at)” value (lymph node, 100MMF-vs-Veh, 7 h) was 2.59. For the same compound, the “FC Osgin1 (1424022_PM_at)” value (lymph node, 100MMF-vs-Veh, 7 h) was 1.50, the “FC Pla2g7 (1430700_PM_a_at)” value (lymph node, 100MMF-vs-Veh, 7 h) was 1.67 and the “FC Rnf128 (1449036_PM_at)” value (lymph node, 100MMF-vs-Veh, 7 h) was 1.81. The “FC Slc11a1 (1420361_PM_at)” value (lymph node, 100MMF-vs-Veh, 7 h) was 1.57, the “FC Slc40a1 1448566_PM_at” value (lymph node, 100MMF-vs-Veh, 7 h) was 1.87 and the “FC Slc40a1 (1417061_PM_at)” value (lymph node, 100MMF-vs-Veh, 7 h) was 1.80. For the same compound, the “FC Srxn1 (1419942_PM_at)” value (lymph node, 100MMF-vs-Veh, 7 h) was 1.93, the “FC Srxn1 (1426875_PM_s_at)” value (lymph node, 100MMF-vs-Veh, 7 h) was 1.80 and the “FC Tnfaip2 (1416273_PM_at)” value (lymph node, 100MMF-vs-Veh, 7 h) was 1.86. For the same compound, the “FC Tnfaip2 (1438855_PM_x_at)” value (lymph node, 100MMF-vs-Veh, 7 h) was 1.55, the “FC Ugt1a1 /// Ugt1a10 /// Ugt1a2 /// Ugt1a5 /// Ugt1a6a /// Ugt1a6b /// Ugt1a7c /// Ugt1a9 (1426261_PM_s_at)” value (lymph node, 100MMF-vs-Veh, 7 h) was 1.55 and the “FC Ccl3 (1419561_PM_at)” value [4] was 2.22. For the same compound, the “FC Clec4d (1420804_PM_s_at)” value [4] was 2.43, the “FC Kcne3 (1418499_PM_a_at)” value [4] was 1.56 and the “FC Mmp9 (1416298_PM_at)” value [4] was 1.82. The “FC Mmp12 (1449153_PM_at)” value [4] was 3.95, the “FC Npas2 (1421037_PM_at)” value [4] was 1.56 and the “FC Tnfaip2 (1416273_PM_at)” value [4] was 1.54.
